≈ marks a conversion by molar mass, not a printed value. Bounds are passed on as bounds.

Test systems include Escherichia coli BW25113; Escherichia coli; Citrobacter koseri; Enterococcus faecium; Escherichia coli BL21; Escherichia coli JM109; Pseudomonas aeruginosa; Salmonella enterica; Staphylococcus xylosus; Candida albicans C627; Escherichia coli DC2; Escherichia coli UB1005.
What all share (experiment): ≥ marks a high value that may be exact or a test limit, other limits are often not marked, values filed in µg/mL are converted to µM
The subject of assay [1] is Acinetobacter baumannii ATCC 19606.
Assay [2] has as its system Escherichia coli BW25113 ΔsbmA.
Assay [3] concerns Klebsiella pneumoniae ATCC 700603.
For assay [4], the system named is Pseudomonas aeruginosa ATCC 27853.
For assay [5], the system named is Staphylococcus aureus ATCC 25923.
Assay [6] deals with Bifidobacterium adolescentis.
Assay [7] deals with Klebsiella pneumoniae CCRC 10694.
In assay [8] the test system is Lactobacillus delbrueckii subsp. bulgaricus.
Assay [9] concerns Salmonella typhimurium CCRC 12947.
Assay [10] has as its system Staphylococcus aureus CCRC 12652.
Assay [11] deals with Staphylococcus aureus CCRC 15211.
Assay [12] relates to Vibrio parahaemolyticus CCRC 10806.
Assay [13] concerns Aeromonas salmonicida 97-4.
The subject of assay [14] is Aeromonas salmonicida 99-1.
Assay [15] relates to Escherichia coli CGSC 4908.
Assay [16] deals with Pseudomonas aeruginosa K799.
The subject of assay [17] is Pseudomonas aeruginosa Z61.
Assay [18] concerns Salmonella enterica serovar typhimurium MS7953s.
Assay [19] deals with Salmonella enterica subsp. enterica serovar Typhimurium ATCC 14028s.
For assay [20], the system named is Staphylococcus aureus C623.
Assay [21] has as its system Staphylococcus epidermidis C621.
The test system of assay [22] is Escherichia coli ATCC 25922.
The subject of assay [23] is Salmonella enterica subsp. enterica serovar Typhimurium ATCC 14028.

In the case of `CC[C@H](C)[C@H](NC(=O)[C@@H]1CCCN1C(=O)[C@H](CCCN=C(N)N)NC(=O)[C@H](CCCN=C(N)N)NC(=O)[C@H](Cc1c[nH]c2ccccc12)NC(=O)[C@@H](N)CCCN=C(N)N)C(=O)N[C@@H](CCCN=C(N)N)C(=O)N[C@@H](CCCN=C(N)N)C(=O)N[C@@H](CCCN=C(N)N)C(=O)N1CCC[C@H]1C(=O)N[C@H](C(=O)N[C@@H](CCCN=C(N)N)C(=O)N1CCC[C@H]1C(=O)N1CCC[C@H]1C(=O)N[C@@H](Cc1ccccc1)C(=O)N[C@@H](Cc1c[nH]c2ccccc12)C(=O)N[C@@H](CCCN=C(N)N)C(=O)O)[C@@H](C)CC` [RWRRPIRRRPIRPPFWR], the MIC (in general, the least concentration at which growth counts as inhibited) in assay [1] came to 8 µM (≈ 19.2 µg/mL); in assay [2] it was 4 µM (≈ 9.61 µg/mL); in the assay on Escherichia coli BW25113, 4 µM (≈ 9.61 µg/mL); against Escherichia coli it was 1.41 µM (≈ 3.4 µg/mL); in assay [3], 4 µM (≈ 9.61 µg/mL); in assay [4] it was 32 µM (≈ 76.9 µg/mL). The compound also registered an MIC in assay [5] of 64 µM (≈ 154 µg/mL).

With `CC[C@H](C)[C@H](NC(=O)[C@H](CO)NC(=O)[C@H](CCCCN)NC(=O)[C@H](CC(C)C)NC(=O)[C@H](CCCCN)NC(=O)[C@@H](N)CC(C)C)C(=O)N[C@H](C(=O)N[C@@H](CO)C(=O)N[C@@H](Cc1ccc(O)cc1)C(=O)N[C@@H](C)C(=O)N[C@@H](CCCCN)C(=O)N[C@@H](CCCCN)C(=O)N[C@H](C(=O)N[C@@H](CC(C)C)C(N)=O)C(C)C)C(C)C` [LKLKSIVSYAKKVL], the MIC in assay [6] is at least 80.5 µM; in the assay on Citrobacter koseri, 5.03 µM (≈ 8 µg/mL); against Enterococcus faecium it was at least 80.5 µM; in the assay on Escherichia coli BL21, 10.1 µM (≈ 16 µg/mL); with Escherichia coli JM109 it was 1.26 µM (≈ 2 µg/mL); in assay [7], at least 80.5 µM. Also, the MIC in assay [8] is at least 80.5 µM; with Pseudomonas aeruginosa, 80.5 µM (≈ 128 µg/mL); against Salmonella enterica, at least 80.5 µM; in assay [9], at least 80.5 µM; in [10] it was at least 80.5 µM; in [11], at least 80.5 µM. The MIC in the assay with Staphylococcus xylosus is 0.629 µM (≈ 0.999 µg/mL); in assay [12], at least 40.3 µM.

For the compound `CC(=O)[C@H](CC(C)C)NC(=O)[C@H](Cc1ccc(O)cc1)NC(=O)[C@H](Cc1cnc[nH]1)NC(=O)[C@H](CC(=O)O)NC(=O)[C@H](CC(C)C)NC(=O)[C@H](C)NC(=O)[C@H](CC(C)C)NC(=O)CNC(=O)CNC(=O)[C@@H](NC(=O)[C@@H](NC(=O)[C@H](CCCCN)NC(=O)CNC(=O)[C@@H](NC(=O)[C@H](CCCCN)NC(=O)[C@H](CCCCN)NC(=O)[C@H](C)NC(=O)[C@H](CCCCN)NC(=O)[C@H](CCCNC(=N)N)NC(=O)[C@H](Cc1ccccc1)NC(=O)[C@@H](NC(=O)[C@H](CO)NC(=O)[C@H](CCCCN)NC(=O)[C@H](Cc1c[nH]c2ccccc12)NC(=O)CN)C(C)C)C(C)C)[C@@H](C)O)C(C)C` [GWKSVFRKAKKVGKTVGGLALDHYL], the MIC was determined as 2.9 µM (≈ 7.99 µg/mL) in [13]; 2.9 µM (≈ 7.99 µg/mL) in [14]; 11.6 µM (≈ 32 µg/mL) with Candida albicans C627; 1.45 µM (≈ 4 µg/mL) in assay [15]; 1.45 µM (≈ 4 µg/mL) in the assay with Escherichia coli DC2; 5.8 µM (≈ 16 µg/mL) in the assay with Escherichia coli UB1005. Further, the MIC was 11.6 µM (≈ 32 µg/mL) in assay [16]; 1.45 µM (≈ 4 µg/mL) in assay [17]; 1.45 µM (≈ 4 µg/mL) in assay [18]; 11.6 µM (≈ 32 µg/mL) in assay [19]; 23.2 µM (≈ 64 µg/mL) in [20]; 23.2 µM (≈ 64 µg/mL) in assay [21].

`CC[C@H](C)[C@H](NC(=O)[C@H](CC(N)=O)NC(=O)[C@H](CCCCN)NC(=O)[C@H](CC(C)C)NC(=O)[C@H](CCCCN)NC(=O)[C@@H](N)CC(C)C)C(=O)N[C@H](C(=O)N[C@@H](CO)C(=O)N[C@@H](Cc1c[nH]c2ccccc12)C(=O)N[C@@H](C)C(=O)N[C@@H](CCCCN)C(=O)N[C@@H](CCCCN)C(=O)N[C@H](C(=O)N[C@@H](CC(C)C)C(N)=O)C(C)C)C(C)C` [LKLKNIVSWAKKVL]: the MIC in assay [6] was at least 78 µM; in the assay with Citrobacter koseri it was 2.44 µM (≈ 4 µg/mL); against Enterococcus faecium, at least 78 µM; in the assay with Escherichia coli BL21, 4.88 µM (≈ 8 µg/mL); in the assay on Escherichia coli JM109, 1.22 µM (≈ 2 µg/mL); in assay [7], at least 39 µM. Also, the MIC in assay [8] is at least 78 µM; against Pseudomonas aeruginosa, 39 µM (≈ 64 µg/mL); in the assay on Salmonella enterica, 19.5 µM (≈ 32 µg/mL); in assay [9], 19.5 µM (≈ 32 µg/mL); in [10] it was 13.8 µM (≈ 22.6 µg/mL); in assay [11], 19.5 µM (≈ 32 µg/mL). For the same compound, the minimal inhibitory concentration (MIC) turned out to be 0.61 µM (≈ 0.999 µg/mL) against Staphylococcus xylosus and 9.76 µM (≈ 16 µg/mL) in [12].

Turning to `CC[C@H](C)[C@H](NC(=O)[C@H](CCCCN)NC(=O)CNC(=O)[C@@H](NC(=O)[C@H](Cc1cnc[nH]1)NC(=O)[C@H](Cc1cnc[nH]1)NC(=O)[C@@H](NC(=O)CNC(=O)[C@H](Cc1cnc[nH]1)NC(=O)[C@H](Cc1ccccc1)NC(=O)[C@H](CC(C)C)NC(=O)[C@H](CC(C)C)NC(=O)[C@H](CCCNC(=N)N)NC(=O)[C@H](Cc1ccccc1)NC(=O)[C@@H](N)Cc1ccccc1)C(C)C)C(C)C)C(=O)N[C@@H](CCCCN)C(=O)N1CCC[C@H]1C(=O)N[C@@H](CCCNC(=N)N)C(=O)N[C@@H](C)C(C)=O` [FFRLLFHGVHHVGKIKPRA], the MIC in assay [13] was determined as 14.2 µM (≈ 32 µg/mL); in assay [14] it was 28.3 µM (≈ 63.9 µg/mL); against Candida albicans C627, 28.3 µM (≈ 63.9 µg/mL); in assay [15], 14.2 µM (≈ 32 µg/mL); in the assay on Escherichia coli DC2 it was 14.2 µM (≈ 32 µg/mL); in the assay on Escherichia coli UB1005, 14.2 µM (≈ 32 µg/mL). In addition, the minimal inhibitory concentration (MIC) in assay [16] was 14.2 µM (≈ 32 µg/mL); in assay [17], 3.54 µM (≈ 7.99 µg/mL); in assay [18], 7.08 µM (≈ 16 µg/mL); in assay [19], 28.3 µM (≈ 63.9 µg/mL); in assay [20], 28.3 µM (≈ 63.9 µg/mL); in assay [21] it was 14.2 µM (≈ 32 µg/mL).

Consider `CC[C@H](C)[C@H](NC(=O)[C@@H]1CCCN1C(=O)[C@@H]1CCCN1C(=O)[C@H](CCCN=C(N)N)NC(=O)[C@H](Cc1ccccc1)NC(=O)[C@@H]1CCCN1C(=O)[C@@H]1CCCN1C(=O)[C@H](Cc1ccc(O)cc1)NC(=O)[C@H](Cc1ccccc1)NC(=O)[C@@H]1CCCN1C(=O)[C@@H]1CCCN1C(=O)[C@H](CCCN=C(N)N)NC(=O)[C@@H](NC(=O)[C@@H]1CCCN1C(=O)[C@@H]1CCCN1C(=O)[C@H](CCCN=C(N)N)NC(=O)[C@H](CCCN=C(N)N)NC(=O)[C@@H](NC(=O)[C@@H]1CCCN1C(=O)[C@@H]1CCCN1C(=O)[C@@H](N)CCCN=C(N)N)[C@@H](C)CC)[C@@H](C)CC)C(=O)N[C@@H](CCCN=C(N)N)C(=O)N1CCC[C@H]1C(=O)O` [RPPIRRPPIRPPFYPPFRPPIRP], for which the MIC in assay [1] was 8 µM (≈ 22.6 µg/mL); in assay [22], 8 µM (≈ 22.6 µg/mL); in assay [2], at least 64 µM; against Escherichia coli BW25113 it was 4 µM (≈ 11.3 µg/mL); in [3], over 64 µM; in assay [4] it was over 64 µM. The MIC in [23] and in assay [5] was over 64 µM each time.

The values are drawn from DBAASP.
